Test results taken from patent publication US10385057B2, “Pyrazole compounds and methods of making and using same” (Lundbeck La Jolla Research Center, Inc., priority 2015, dated 2019).
One block for each compound: values may come before it.

Tests used:
[1] = biological target: T1, MAGL (Mus musculus, UniProt O35678); test: Mouse brain proteomes from inhibitor treated mice, MAGL; assay type: in vivo; conditions: oral gavage, brain 4 h after administration, read-out: MAGL % inh. 5 mg/kg (mouse)
T1 construct: mouse brain membrane fraction or cell lysates for mouse assays; from tissue
T1 sequence (O35678 1-303): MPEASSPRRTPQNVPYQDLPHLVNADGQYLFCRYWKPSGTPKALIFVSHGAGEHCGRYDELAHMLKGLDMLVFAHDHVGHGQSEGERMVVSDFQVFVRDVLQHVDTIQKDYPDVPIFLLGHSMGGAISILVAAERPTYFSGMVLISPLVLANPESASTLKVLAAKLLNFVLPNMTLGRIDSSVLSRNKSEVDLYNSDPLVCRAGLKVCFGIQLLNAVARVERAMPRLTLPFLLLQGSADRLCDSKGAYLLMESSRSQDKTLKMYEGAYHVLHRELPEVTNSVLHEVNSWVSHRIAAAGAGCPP
Method: Preparation of Mouse Brain Proteomes from Inhibitor Treated Mice.
Inhibitors were administered to wild-type C57Bl/6J by oral gavage in a vehicle of polyethylene glycol. Each animal was sacrificed 4 h following administration and brain proteomes were prepared and analyzed according to previously established methods (See Niphakis, M. J., et al. (2011) ACS Chem. Neurosci. and Long, J. Z., et al. Nat. Chem. Biol. 5:37-44).

[2] = biological target: T1, MAGL; test: In vitro competitive activity-based protein profiling, mouse MAGL; assay type: biochemical; conditions: for inhibition at 1 µM: read-out: MAGL % inh. 1 μM (mouse)
How it was run: (§1)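 Mouse brain membranes or cell lysates (mouse) and human prefrontal cortex or cell membrane fractions (human), 1.0 mg/mL protein, preincubated with inhibitor 30 min at 37 °C, then FP-Rh or HT-01 probe 30 min at 37 °C. SDS-PAGE; MAGL and FAAH activity from in-gel fluorescence band intensity.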

[3] = biological target: T2, FAAH (Mus musculus, UniProt O08914); test: In vitro competitive activity-based protein profiling, mouse FAAH; assay type: biochemical; conditions: for inhibition at 1 µM: read-out: FAAH % inh. 1 μM (mouse)
T2 construct: mouse brain membrane fraction or cell lysates for mouse assays; from tissue
T2 sequence (O08914 1-579): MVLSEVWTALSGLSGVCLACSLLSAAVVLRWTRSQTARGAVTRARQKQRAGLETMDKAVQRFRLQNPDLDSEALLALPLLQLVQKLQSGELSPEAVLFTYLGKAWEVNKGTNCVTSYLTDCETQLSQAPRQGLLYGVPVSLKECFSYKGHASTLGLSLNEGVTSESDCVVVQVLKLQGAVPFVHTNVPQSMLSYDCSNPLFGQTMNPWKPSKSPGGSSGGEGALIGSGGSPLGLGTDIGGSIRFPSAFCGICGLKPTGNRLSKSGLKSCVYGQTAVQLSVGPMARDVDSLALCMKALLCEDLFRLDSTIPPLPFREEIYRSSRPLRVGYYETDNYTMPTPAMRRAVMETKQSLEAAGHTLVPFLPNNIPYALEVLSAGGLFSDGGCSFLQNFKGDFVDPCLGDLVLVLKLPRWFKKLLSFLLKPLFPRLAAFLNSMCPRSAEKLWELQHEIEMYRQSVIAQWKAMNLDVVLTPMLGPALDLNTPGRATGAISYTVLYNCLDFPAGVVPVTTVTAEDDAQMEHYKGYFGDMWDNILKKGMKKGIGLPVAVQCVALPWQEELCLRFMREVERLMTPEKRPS
How it was run: as §1

Structure (SMILES): NC(=O)c1cnn(C(=O)N2CCC3(CCN(Cc4cccc(C(F)(F)F)c4)C3)C2)c1 (centres unmarked) [Example 41, 1-(7-(3-(trifluoromethyl)benzyl)-2,7-diazaspiro[4.4]nonane-2-carbonyl)-1H-pyrazole-4-carboxamide]
inhibition at 5 mg/kg [1]: ≥ 75%
IC50 [2]: 0.1 to 1 µM
inhibition at 1 µM ([2]; 1 μM): ≥ 75%
IC50 [3]: ≤ 0.1 µM
inhibition at 1 µM ([3]; 1 μM): ≥ 75%

Structure (SMILES): CNC(=O)c1cnn(C(=O)N2C[C@H]3C[C@@H](N(C)Cc4ccc(C(F)(F)F)cc4)C[C@H]3C2)c1 [Example 54, N-methyl-1-(cis-5-(methyl(4-(trifluoromethyl)benzyl)amino)octahydrocyclopenta[c]pyrrole-2-carbonyl)-1H-pyrazole-4-carboxamide]
inhibition at 5 mg/kg [1]: ≥ 75%
IC50 [2]: 0.1 to 1 µM
inhibition at 1 µM ([2]; 1 μM): ≥ 75%
IC50 [3]: ≤ 0.1 µM
inhibition at 1 µM ([3]; 1 μM): ≥ 75%

Structure (SMILES): NC(=O)c1cnn(C(=O)N2CCC3(CCN(Cc4cc(Cl)ccc4Cl)C3)C2)c1 (centres unmarked) [Example 39, 1-(7-(2,5-dichlorobenzyl)-2,7-diazaspiro[4.4]nonane-2-carbonyl)-1H-pyrazole-4-carboxamide]
inhibition at 5 mg/kg [1]: ≥ 75%
inhibition at 1 µM ([2]; 1 μM): ≥ 75%
inhibition at 1 µM ([3]; 1 μM): ≥ 75%

Structure (SMILES): O=C(c1cnn(C(=O)N2CCC3(CCN(Cc4ccc(N5CCOCC5)cc4C(F)(F)F)C3)C2)c1)N1CCCC1 (centres unmarked) [Example 50, (1-(7-(4-morpholino-2-(trifluoromethyl)benzyl)-2,7-diazaspiro[4.4]nonane-2-carbonyl)-1H-pyrazol-4-yl)(pyrrolidin-1-yl)methanone]
inhibition at 5 mg/kg [1]: 0 to 25%
IC50 [2]: 0.1 to 1 µM
inhibition at 1 µM ([2]; 1 μM): ≥ 75%
IC50 [3]: ≤ 0.1 µM
inhibition at 1 µM ([3]; 1 μM): ≥ 75%

Structure (SMILES): NC(=O)c1cnn(C(=O)N2CCC3(CCN(Cc4cc(Cl)cc(C(F)(F)F)c4)C3)C2)c1 (centres unmarked) [Example 43, 1-(7-(3-chloro-5-(trifluoromethyl)benzyl)-2,7-diazaspiro[4.4]nonane-2-carbonyl)-1H-pyrazole-4-carboxamide]
inhibition at 5 mg/kg [1]: ≥ 75%
IC50 [2]: ≤ 0.1 µM
inhibition at 1 µM ([2]; 1 μM): ≥ 75%
IC50 [3]: ≤ 0.1 µM
inhibition at 1 µM ([3]; 1 μM): ≥ 75%

Structure (SMILES): CN(Cc1ccc(C(F)(F)F)cc1)[C@@H]1C[C@@H]2CN(C(=O)n3cc(C(N)=O)cn3)C[C@@H]2C1 [Example 55, 1-(cis-5-(methyl(4-(trifluoromethyl)benzyl)amino)octahydrocyclopenta[c]pyrrole-2-carbonyl)-1H-pyrazole-4-carboxamide]
inhibition at 5 mg/kg [1]: ≥ 75%
IC50 [2]: ≤ 0.1 µM
inhibition at 1 µM ([2]; 1 μM): ≥ 75%
IC50 [3]: ≤ 0.1 µM
inhibition at 1 µM ([3]; 1 μM): ≥ 75%

Structure (SMILES): NC(=O)c1cnn(C(=O)N2CCC3(CCN(Cc4ccc(N5CCOCC5)cc4C(F)(F)F)C3)C2)c1 (centres unmarked) [Example 45, 1-(7-(4-morpholino-2-(trifluoromethyl)benzyl)-2,7-diazaspiro[4.4]nonane-2-carbonyl)-1H-pyrazole-4-carboxamide]
inhibition at 5 mg/kg [1]: ≥ 75%
IC50 [2]: 0.1 to 1 µM
inhibition at 1 µM ([2]; 1 μM): ≥ 75%
IC50 [3]: ≤ 0.1 µM
inhibition at 1 µM ([3]; 1 μM): ≥ 75%

Structure (SMILES): O=C(c1cnn(C(=O)N2CC3CN(Cc4cccc(C(F)(F)F)c4)CC3C2)c1)N1CCOCC1 (centres unmarked) [Example 7, (4-(morpholine-4-carbonyl)-1H-pyrazol-1-yl)(5-(3-(trifluoromethyl)benzyl)hexahydropyrrolo[3,4-c]pyrrol-2(1H)-yl)methanone]
inhibition at 1 µM ([2]; 1 μM): ≥ 75%
inhibition at 1 µM ([3]; 1 μM): ≥ 75%

The next lines start with results.

inhibition at 5 mg/kg [1]: ≥ 75%
IC50 [2]: 0.1 to 1 µM
inhibition at 1 µM ([2]; 1 μM): ≥ 75%
IC50 [3]: ≤ 0.1 µM
inhibition at 1 µM ([3]; 1 μM): ≥ 75%
Structure (SMILES): O=C(N1CC2CN(Cc3ccc(Cl)cc3)CC2C1)n1cc(Cl)cn1 (centres unmarked) [Example 118, (4-chloro-1H-pyrazol-1-yl)(5-(4-chlorobenzyl)hexahydropyrrolo[3,4-c]pyrrol-2(1H)-yl)methanone]

inhibition at 5 mg/kg [1]: 25 to 50%
IC50 [2]: 0.1 to 1 µM
inhibition at 1 µM ([2]; 1 μM): ≥ 75%
IC50 [3]: ≤ 0.1 µM
inhibition at 1 µM ([3]; 1 μM): ≥ 75%
Structure (SMILES): O=C(N1CC2CN(Cc3ccccc3Cl)CC2C1)n1cc(Cl)cn1 (centres unmarked) [Example 116, (4-chloro-1H-pyrazol-1-yl)(5-(2-chlorobenzyl)hexahydropyrrolo[3,4-c]pyrrol-2(1H)-yl)methanone]

inhibition at 5 mg/kg [1]: ≥ 75%
IC50 [2]: 0.1 to 1 µM
inhibition at 1 µM ([2]; 1 μM): ≥ 75%
IC50 [3]: ≤ 0.1 µM
inhibition at 1 µM ([3]; 1 μM): ≥ 75%
Structure (SMILES): CN(Cc1ccccc1Cl)[C@@H]1C[C@@H]2CN(C(=O)n3cc(C(N)=O)cn3)C[C@@H]2C1 [Example 88, 1-(cis-5-((2-chlorobenzyl)(methyl)amino)octahydrocyclopenta[c]pyrrole-2-carbonyl)-1H-pyrazole-4-carboxamide]

inhibition at 5 mg/kg [1]: ≥ 75%
IC50 [2]: ≤ 0.1 µM
inhibition at 1 µM ([2]; 1 μM): ≥ 75%
IC50 [3]: ≤ 0.1 µM
inhibition at 1 µM ([3]; 1 μM): ≥ 75%
Structure (SMILES): O=C(N1CC2CN(Cc3ccc(Cl)c(Cl)c3)CC2C1)n1cc(Cl)cn1 (centres unmarked) [Example 119, (4-chloro-1H-pyrazol-1-yl)(5-(3,4-dichlorobenzyl)hexahydropyrrolo[3,4-c]pyrrol-2(1H)-yl)methanone]

inhibition at 5 mg/kg [1]: ≥ 75%
IC50 [2]: ≤ 0.1 µM
IC50 [3]: ≤ 0.1 µM
Structure (SMILES): CN(Cc1ccccc1Cl)[C@@H]1C[C@@H]2CN(C(=O)n3cc(Cl)cn3)C[C@@H]2C1 [Example 59, (4-chloro-1H-pyrazol-1-yl)(trans-5-((2-chlorobenzyl)(methyl)amino)hexahydrocyclopenta[c]pyrrol-2(1H)-yl)methanone]
MAGL % inh. 1 μM (mouse) ([2]; 1 μM): A (% inhibition greater than or equal to 75%)
FAAH % inh. 1 μM (mouse) ([3]; 1 μM): A (% inhibition greater than or equal to 75%)

inhibition at 5 mg/kg [1]: ≥ 75%
IC50 [2]: ≤ 0.1 µM
inhibition at 1 µM ([2]; 1 μM): ≥ 75%
IC50 [3]: ≤ 0.1 µM
inhibition at 1 µM ([3]; 1 μM): ≥ 75%
Structure (SMILES): Cc1cc(-c2ccccc2)ccc1CN1CCC2(CCN(C(=O)n3cc(Cl)cn3)C2)C1 (centres unmarked) [Example 130, (4-chloro-1H-pyrazol-1-yl)(7-((3-methyl-[1,1′-biphenyl]-4-yl)methyl)-2,7-diazaspiro[4.4]nonan-2-yl)methanone]

inhibition at 5 mg/kg [1]: ≥ 75%
inhibition at 1 µM ([2]; 1 μM): ≥ 75%
inhibition at 1 µM ([3]; 1 μM): ≥ 75%
Structure (SMILES): CN(Cc1ccccc1C(F)(F)F)[C@@H]1C[C@@H]2CN(C(=O)n3cc(C(N)=O)cn3)C[C@@H]2C1 [Example 90, 1-(cis-5-(methyl(2-(trifluoromethyl)benzyl)amino)octahydrocyclopenta[c]pyrrole-2-carbonyl)-1H-pyrazole-4-carboxamide]

inhibition at 5 mg/kg [1]: ≥ 75%
IC50 [2]: 0.1 to 1 µM
inhibition at 1 µM ([2]; 1 μM): ≥ 75%
IC50 [3]: ≤ 0.1 µM
inhibition at 1 µM ([3]; 1 μM): ≥ 75%
Structure (SMILES): NC(=O)c1cnn(C(=O)N2CC[C@]3(CCN(Cc4ccc(N5CCOCC5)cc4C(F)(F)F)C3)C2)c1 [Example 195, (S)-1-(7-(4-morpholino-2-(trifluoromethyl)benzyl)-2,7-diazaspiro[4.4]nonane-2-carbonyl)-1H-pyrazole-4-carboxamide]

inhibition at 5 mg/kg [1]: ≥ 75%
IC50 [2]: 0.1 to 1 µM
inhibition at 1 µM ([2]; 1 μM): ≥ 75%
IC50 [3]: ≤ 0.1 µM
inhibition at 1 µM ([3]; 1 μM): ≥ 75%
Structure (SMILES): CN(Cc1ccccc1Cl)[C@H]1C[C@@H]2CN(C(=O)n3cc(C(N)=O)cn3)C[C@@H]2C1 [Example 96, 1-(trans-5-((2-chlorobenzyl)(methyl)amino)octahydrocyclopenta[c]pyrrole-2-carbonyl)-1H-pyrazole-4-carboxamide]

IC50 [2]: 0.1 to 1 µM
inhibition at 1 µM ([2]; 1 μM): ≥ 75%
IC50 [3]: ≤ 0.1 µM
inhibition at 1 µM ([3]; 1 μM): ≥ 75%
Structure (SMILES): Cc1cc(N2CCOCC2)ccc1CN1CCC2(CCN(C(=O)n3cc(Cl)cn3)C2)C1 (centres unmarked) [Example 138, (4-chloro-1H-pyrazol-1-yl)(7-(2-methyl-4-morpholinobenzyl)-2,7-diazaspiro[4.4]nonan-2-yl)methanone]

IC50 [2]: ≤ 0.1 µM
inhibition at 1 µM ([2]; 1 μM): ≥ 75%
IC50 [3]: ≤ 0.1 µM
inhibition at 1 µM ([3]; 1 μM): ≥ 75%
Structure (SMILES): O=C(N1CC2CN(Cc3ccc(F)cc3N3CCCC3)CC2C1)n1cc(Cl)cn1 (centres unmarked) [Example 103, (4-chloro-1H-pyrazol-1-yl)(5-(4-fluoro-2-(pyrrolidin-1-yl)benzyl)hexahydropyrrolo[3,4-c]pyrrol-2(1H)-yl)methanone]
